Results as given in publication PMC3792216 (Biomolecules & Therapeutics, 2012).

How the values were obtained:
[1] = target: estrogen receptor beta (hERβ) (Homo sapiens, UniProt Q92731); test: competitive displacement of [3H]-E2 radioligand, filter binding
[2] = target: estrogen receptor alpha (hERα) (Homo sapiens, UniProt P03372); test: as above
Sequence of estrogen receptor alpha (hERα) (P03372 whole entry): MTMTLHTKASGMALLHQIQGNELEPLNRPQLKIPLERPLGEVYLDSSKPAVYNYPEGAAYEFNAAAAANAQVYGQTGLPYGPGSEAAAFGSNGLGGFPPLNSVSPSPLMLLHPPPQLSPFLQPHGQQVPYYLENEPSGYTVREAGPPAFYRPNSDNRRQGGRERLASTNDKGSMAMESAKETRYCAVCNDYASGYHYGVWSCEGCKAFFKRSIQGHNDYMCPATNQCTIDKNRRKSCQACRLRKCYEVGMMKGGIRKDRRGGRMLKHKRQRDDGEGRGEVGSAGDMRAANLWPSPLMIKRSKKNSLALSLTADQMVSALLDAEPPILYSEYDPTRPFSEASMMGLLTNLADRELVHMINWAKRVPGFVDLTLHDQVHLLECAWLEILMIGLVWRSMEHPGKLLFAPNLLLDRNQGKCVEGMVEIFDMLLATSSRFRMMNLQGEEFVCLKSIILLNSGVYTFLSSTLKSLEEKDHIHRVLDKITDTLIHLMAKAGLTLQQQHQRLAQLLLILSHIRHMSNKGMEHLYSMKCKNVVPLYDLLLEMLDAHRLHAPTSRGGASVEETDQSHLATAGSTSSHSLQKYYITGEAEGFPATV

Sequence of estrogen receptor beta (hERβ) (Q92731 whole entry): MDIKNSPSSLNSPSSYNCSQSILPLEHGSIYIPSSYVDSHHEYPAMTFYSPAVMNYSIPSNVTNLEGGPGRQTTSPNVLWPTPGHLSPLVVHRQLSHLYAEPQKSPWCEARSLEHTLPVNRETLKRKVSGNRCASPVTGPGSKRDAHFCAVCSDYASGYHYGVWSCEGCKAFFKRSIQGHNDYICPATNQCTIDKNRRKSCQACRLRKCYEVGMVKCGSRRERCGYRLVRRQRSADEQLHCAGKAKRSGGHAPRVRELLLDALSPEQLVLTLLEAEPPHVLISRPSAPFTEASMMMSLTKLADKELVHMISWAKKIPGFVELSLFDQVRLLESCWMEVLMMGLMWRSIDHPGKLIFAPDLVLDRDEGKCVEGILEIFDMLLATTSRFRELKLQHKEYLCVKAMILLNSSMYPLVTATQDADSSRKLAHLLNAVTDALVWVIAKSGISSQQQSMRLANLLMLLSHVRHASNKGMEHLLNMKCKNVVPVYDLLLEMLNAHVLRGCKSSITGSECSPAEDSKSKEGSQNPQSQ

IC50 [1]: 38 µM
IC50 [2]: 65.7 µM
Compound: CC(C)=CCc1cc2c(cc1O)O[C@H](c1ccc(O)cc1)CC2=O [bavachin]
